According to ChEMBL document CHEMBL3217406, “Small molecules aimed at type III secretion systems to inhibit bacterial virulence” (Medchemcomm, 2013):
Values after ≈ are worked out from the molar mass of the structure shown.

Key:
[1] = Inhibition of phospholipase A2 activity of Pseudomonas aeruginosa N-terminal His6-tagged ExoU expressed in Escherichia coli BL21 cells using arachidonic TEPC as substrate by Ellman's method
[2] = Inhibition of T3SS-mediated carboxypeptidase G2-SopE2-HA secretion in Salmonella typhimurium by fluorescence analysis; parameters: species or system Salmonella enterica subsp. enterica serovar Typhimurium
[3] = Inhibition of T3SS-mediated LcrQ secretion in Yersinia pseudotuberculosis assessed as yopE promoter-luciferase gene expression by luciferase reporter gene assay
[4] = Inhibition of T3SS-mediated YopE secretion in Yersinia pestis KIM19 by ELISA
[5] = Inhibition of T3SS-mediated SipB secretion in Salmonella typhimurium; parameters: species or system Salmonella enterica subsp. enterica serovar Typhimurium
[6] = Inhibition of T3SS-mediated ExoU secretion in Pseudomonas aeruginosa PA103
[7] = Inhibition of Escherichia coli T3SS-mediated hemolysis of erythrocytes
[8] = Inhibition of Escherichia coli T3SS-mediated hemolysis of sheep erythrocytes by microplate reader analysis

Which IC50 [1] does the source give for `NC(=O)c1cccc2c1-c1ccccc1C2` here?
Its IC50 is 7 µM.

Which results are given for `O=C(N/N=C/c1cc(Br)cc(Br)c1O)c1ccc([N+](=O)[O-])cc1`?
IC50 [2]: 5.5 µM; IC50 [3]: 15 µM

With `CC(=O)Nc1ccc(N2C(=O)c3ccc(C(=O)OC(C)C(=O)c4c[nH]c5ccccc45)cc3C2=O)cc1` (configuration not stated) as the molecule, how does the IC50 [4] read?
The IC50 was 20 µM.

What does the source list for `O=C(O)C(Cc1ccc(Cl)cc1)Nc1nc(-c2ccc(-c3ccccc3)cc2)nc(N2CCN(c3ccccn3)CC2)n1` (configuration not stated)?
IC50 [5]: 20 µM; IC50 [6]: > 100 µM

Which IC50 [4] does the source give for `O=C(Cc1csc(NC(=O)c2ccccc2)n1)Nn1cnc2scc(-c3ccco3)c2c1=O` here?
The IC50 was 20 µM.

With `O=C(N/N=C/c1cc(Cl)cc(Cl)c1O)c1ccccc1` as the molecule, how does the IC50 [3] read?
The IC50 was 25 µM.

For `C/C=C\C=C\[C@@H]1O[C@](O)([C@H](CC)C(=O)NC/C=C/C=C(\C)[C@@H](OC)[C@@H](C)[C@@H]2O[C@H](/C=C/C=C/C=C(\C)C(=O)c3c(O)ccn(C)c3=O)[C@H](O)[C@@H]2O)[C@H](O)[C@H](O)C1(C)C`, which IC50 [7] is on record?
Its IC50 is 1.5 µg/mL (≈ 1.85 µM).

Which IC50 [8] does the source give for `CC(C)[C@H](NC(=O)[C@H](C)NC(=O)[C@@H](N)[C@@H](N)CC[C@@H](O)[C@@H](O)C(O)[C@@H]1CN(C(N)=O)C(=N)N1)C(=O)O` (some centres not stated) here?
Its IC50 is 0.02 µM.

For `O=C(N/N=C/c1ccc(O)cc1O)c1ccc([N+](=O)[O-])cc1`, which IC50 [3] is on record?
Its IC50 is 25 µM.

With `O=C(N/N=C/c1cc(Br)cc(Br)c1O)c1cccnc1` as the molecule, how does the IC50 [3] read?
Its IC50 is 25 µM.
